{"source": "patent US20040101555A1", "about": "“Method for stable and controlled delivery of (—)-hydroxycitric acid” (priority 2002, published 2004)", "origin": "cited, not measured here", "key": {"[1]": {"settings": "single large oral dose or two divided oral doses totaling one fourth of the single dose; high-sugar diet"}, "[2]": {"settings": "over a three week period; higher dosage, alone"}}}
{"smiles": "O=C(O)CC(O)(C(=O)O)C(O)C(=O)O", "note": "(single isomer, unassigned; (-)) [HCA, (−)-Hydroxycitric acid]", "values": [{"measurement": "reduction in food consumption", "setting": "[1]", "result": "≥ 10", "unit": "%"}]}
{"smiles": "O=C([O-])CC(O)(C(=O)[O-])C(O)C(=O)[O-].[K+].[K+].[K+]", "note": "(stereo not drawn) [potassium (−)-hydroxycitirate, potassium (−)-hydroxycitrate]", "values": [{"measurement": "average weight loss", "setting": "[2]", "result": 3, "unit": "pounds per week"}]}
